Data: ChEMBL document CHEMBL4043121, “5-Bromoindirubin 3'-(O-oxiran-2-ylmethyl)oxime: A long-acting anticancer agent and a suicide inhibitor for epoxide hydrolase” (Bioorg Med Chem, 2017)
Activity calls are given as the source filed them. No cut-off for these calls is given here.

What was measured:
HepG2 [1] = experiment: Cytotoxicity against human HepG2 cells assessed as cell growth inhibition after 24 hrs by alamar blue assay; assay type: functional, cell-based; settings: HepG2, 24 h
HepG2 [2] = experiment: Cytotoxicity against human HepG2 cells assessed as cell viability at 3 uM after 72 hrs by alamar blue assay relative to control; assay type: functional; settings: HepG2, 72 h, read-out: Activity
[3] = Drug metabolism in human HepG2 cell lysate assessed as epoxide hydrolase-mediated 5-bromoindirubin 3'-(O-2,3-dihydroxypropyl)oxime level after 5 mins by HPLC analysis; assay type: ADME
[4] = Drug recovery in human HepG2 cell lysate measured up to 30 mins by HPLC analysis; assay type: ADME, cell-based; settings: read-out: Drug recovery
[5] = Drug metabolism in human HepG2 cell lysate assessed as epoxide hydrolase-mediated oxirane hydrolysis at 9 uM measured up to 30 mins by HPLC analysis; assay type: ADME; settings: 0.5 h
epoxide hydrolase = experiment: Substrate activity at epoxide hydrolase in human HepG2 cell lysate after 5 mins by Lineweaver-Burk plot analysis; assay type: ADME
[6] = Drug metabolism in human HepG2 cell lysate assessed as epoxide hydrolase-mediated 1H,1'H-[2,3']Biindolylidene-3,2'-dione 3-[O-(2,3-dihydroxy-propyl)-oxime] level after 5 mins by HPLC analysis; assay type: ADME
HepG2 [7] = experiment: Cytotoxicity against human HepG2 cells assessed as cell viability at 3 uM after 24 hrs by alamar blue assay relative to control; assay type: functional; settings: HepG2, 24 h, read-out: Activity
HepG2 [8] = experiment: Cytotoxicity against human HepG2 cells assessed as cell viability at 1 uM after 24 hrs by alamar blue assay relative to control; assay type: functional; settings: HepG2, 24 h, read-out: Activity
HepG2 [9] = experiment: Cytotoxicity against human HepG2 cells assessed as cell viability at 1 uM after 72 hrs by alamar blue assay relative to control; assay type: functional; settings: HepG2, 72 h, read-out: Activity
HepG2 [10] = experiment: Cytotoxicity against human HepG2 cells assessed as cell viability at 3 uM up to 72 hrs by alamar blue assay; assay type: functional, cell-based
[11] = Drug metabolism in human HepG2 cell lysate assessed as epoxide hydrolase-mediated 5-bromoindirubin 3'-(O-2,3-dihydroxypropyl)oxime level by HPLC analysis; assay type: ADME; settings: TDE = time-dependent effect
[12] = Drug metabolism in human HepG2 cell lysate assessed as epoxide hydrolase-mediated oxirane hydrolysis at 20 uM measured up to 30 mins by HPLC analysis; assay type: ADME; settings: 0.5 h
[13] = Drug metabolism in human HepG2 cell lysate assessed as epoxide hydrolase-mediated 5-bromoindirubin 3'-(O-2,3-dihydroxypropyl)oxime level after 20 mins by HPLC analysis; assay type: ADME
[14] = Drug recovery in human HepG2 cell lysate at 5 mins by HPLC analysis; assay type: ADME, cell-based; settings: read-out: Drug recovery
[15] = Drug recovery in human HepG2 cell lysate by HPLC analysis; assay type: ADME, cell-based; settings: TDE = time-dependent effect
Homo sapiens [16] = organism: Homo sapiens; experiment: Effect on epoxide hydrolase activity in human HepG2 cell lysate measured up to 25 uM
HepG2 [17] = experiment: Retention time of the compound in human HepG2 cell lysate by HPLC analysis; assay type: ADME, cell-based
[18] = Drug metabolism in human HepG2 cell lysate assessed as epoxide hydrolase-mediated 5-bromoindirubin 3'-(O-2,3-dihydroxypropyl)oxime formation after 30 mins by HPLC analysis; assay type: ADME; settings: 0.5 h
[19] = Drug recovery in human HepG2 cell lysate after 10 to 30 mins by HPLC analysis; assay type: ADME, cell-based
[20] = Substrate activity at epoxide hydrolase in human HepG2 cell lysate assessed as 5-bromoindirubin 3'-(O-2,3-dihydroxypropyl)oxime formation at 2.5 to 6.25 uM after 5 mins by HPLC analysis; assay type: ADME
Homo sapiens [21] = organism: Homo sapiens; experiment: Inhibition of epoxide hydrolase in human HepG2 cell lysate up to 25 uM by Kitz-Wilson method; settings: TDE = time-dependent effect
[22] = Drug recovery in human HepG2 cell lysate measured immediately after compound addition by HPLC analysis; assay type: ADME, cell-based; settings: read-out: Drug recovery
[23] = Drug metabolism in human HepG2 cell lysate assessed as epoxide hydrolase-mediated 5-bromoindirubin 3'-(O-2,3-dihydroxypropyl)oxime formation after 30 mins by UPLC/MS analysis; assay type: ADME; settings: 0.5 h
[24] = Substrate activity at epoxide hydrolase in human HepG2 cell lysate assessed as 5-bromoindirubin 3'-(O-2,3-dihydroxypropyl)oxime formation at >10 uM after 5 mins by HPLC analysis; assay type: ADME
Homo sapiens [25] = organism: Homo sapiens; experiment: Inhibition of epoxide hydrolase in human HepG2 cell lysate up to 25 uM measured after 5 to 10 mins by Kitz-Wilson method

SMILES | IC50 (HepG2 [1]) | further results
O=C1Nc2ccc(I)cc2/C1=C1/Nc2ccccc2/C1=N\OCC1CO1 (stereo unspecified) | 3 µM | –
O=C1Nc2ccccc2/C1=C1/Nc2ccc(Br)cc2C1=O | > 100 µM | –
O=C1Nc2ccccc2/C1=C1/Nc2ccc(Br)cc2/C1=N\O | 11 µM | –
O=C1Nc2ccccc2/C1=C1/Nc2ccccc2/C1=N\OCC1CO1 (stereo unspecified) | – | viability at 3 µM (HepG2 [2]): 1.8%; Drug metabolism [3]: 2.24 nmol; remaining at 0.5 h [4]: 96 to 103%; Drug metabolism [5]: 1.8 nmol; Km at 5 min (epoxide hydrolase): 1.51 µM; Drug metabolism [6]: 7.34 nmol; viability at 3 µM (HepG2 [7]): 33%; viability at 1 µM (HepG2 [8]): 66%; viability at 1 µM (HepG2 [9]): 85%
O=C1Nc2c(Br)cccc2/C1=C1/Nc2cc(Br)ccc2C1=O | > 100 µM | –
COc1cccc2c1NC(=O)/C2=C1\Nc2ccccc2\C1=N/O | 5.9 µM | –
O=C1Nc2ccccc2/C1=C1/Nc2ccccc2C1=O [INDIRUBIN] | > 100 µM | –
O=C1Nc2ccccc2/C1=C1/Nc2ccccc2/C1=N\OCCCC1CO1 (stereo unspecified) | 16 µM | –
O=C1Nc2c(Br)cccc2/C1=C1/Nc2ccccc2C1=O | > 100 µM | –
O=C1Nc2ccc(I)cc2/C1=C1/Nc2ccccc2/C1=N\O | 57 µM | –
O=C1Nc2cc(Br)ccc2/C1=C1/Nc2ccccc2/C1=N\OCC1CO1 (stereo unspecified) | > 100 µM | –
O=C1Nc2c(Br)cccc2/C1=C1/Nc2ccc(Br)cc2/C1=N\OCC1CO1 (stereo unspecified) | 10 µM | Activity (HepG2 [10]): inactive
COc1ccc2c(c1)/C(=C1/Nc3ccccc3C1=O)C(=O)N2 | > 100 µM | –
O=C1Nc2c(Br)cccc2/C1=C1/Nc2cc(Br)ccc2/C1=N\OCC1CO1 (stereo unspecified) | > 100 µM | –
O=C1Nc2ccccc2/C1=C1/Nc2ccccc2/C1=N\OCCC1CO1 (stereo unspecified) | 7.8 µM | –
O=C1Nc2ccccc2/C1=C1/Nc2cc(Br)ccc2/C1=N\O | 14 µM | –
COc1ccc2c(c1)/C(=C1/Nc3ccccc3/C1=N\O)C(=O)N2 | 6.2 µM | –
O=C1Nc2ccc(Br)cc2/C1=C1/Nc2ccccc2/C1=N\O [INDIRUBIN 2] | 6.9 µM | –
O=C1Nc2c(Br)cc(Br)cc2/C1=C1/Nc2ccccc2/C1=N\O | 6.6 µM | –
O=C1Nc2ccc(Cl)cc2/C1=C1/Nc2ccccc2/C1=N\O | 13 µM | –

SMILES | IC50 (HepG2 [1]) | further results
COc1cccc2c1NC(=O)/C2=C1\Nc2ccccc2\C1=N/OCC1CO1 (stereo unspecified) | 10 µM | –
O=C1Nc2ccc(Br)cc2/C1=C1/Nc2ccccc2/C1=N\OCC1CO1 (stereo unspecified) | 0.62 µM | Drug metabolism [11]: Tde; Drug metabolism [12]: 4 nmol; Drug metabolism [13]: <= 4 nmol; remaining at 5 min [14]: 88%; Drug recovery [15]: Tde; Activity (Homo sapiens [16]): inactive; Retention_time (HepG2 [17]): 5.9 min; viability at 3 µM (HepG2 [2]): 4.8%; Drug metabolism [18]: Metabolite_Detected; Drug recovery [19]: 80%; Activity [20]: Active; inhibition (Homo sapiens [21]): Tde; Km at 5 min (epoxide hydrolase): 3.34 µM; viability at 3 µM (HepG2 [7]): 30%; viability at 1 µM (HepG2 [8]): 39%; viability at 1 µM (HepG2 [9]): 10%; remaining at 0 min [22]: 95%; Drug metabolism [23]: Metabolite_Detected
O=C1Nc2cc(Br)c(Br)cc2/C1=C1/Nc2ccccc2/C1=N\OCC1CO1 (stereo unspecified) | 1.9 µM | viability at 3 µM (HepG2 [2]): 6.5%; viability at 3 µM (HepG2 [7]): 48%; viability at 1 µM (HepG2 [8]): 78%; viability at 1 µM (HepG2 [9]): 96%
O=C1Nc2c(Br)cccc2/C1=C1/Nc2ccc(Br)cc2C1=O | > 100 µM | –
O=C1Nc2ccc(Br)cc2/C1=C1/Nc2ccccc2C1=O | > 100 µM | –
O=C1Nc2c(Br)cccc2/C1=C1/Nc2ccc(Br)cc2/C1=N\O | 4.9 µM | –
COc1ccc2c(c1)NC(=O)/C2=C1\Nc2ccccc2\C1=N/O | 21 µM | –
O=C1Nc2ccccc2/C1=C1/Nc2ccc(Br)cc2/C1=N\OCC1CO1 (stereo unspecified) | 3.3 µM | –
O=C1Nc2ccc(F)cc2/C1=C1/Nc2ccccc2C1=O | > 100 µM | –
O=C1Nc2cc(Br)c(Br)cc2/C1=C1/Nc2ccccc2C1=O | > 100 µM | –
O=C1Nc2ccc(Cl)cc2/C1=C1/Nc2ccccc2C1=O | > 100 µM | –
O=C1Nc2cc(Br)ccc2/C1=C1/Nc2ccccc2C1=O | > 100 µM | –
O=C1Nc2cc(Br)ccc2/C1=C1/Nc2ccc(Br)cc2C1=O | > 100 µM | –
O=C1Nc2ccc(F)cc2/C1=C1/Nc2ccccc2/C1=N\O | 10 µM | –
O=C1Nc2cc(Br)ccc2/C1=C1/Nc2cc(Br)ccc2/C1=N\OCC1CO1 (stereo unspecified) | > 100 µM | –
COc1ccc2c(c1)NC(=O)/C2=C1\Nc2ccccc2C1=O | > 100 µM | –
O=C1Nc2cc(Br)c(Br)cc2/C1=C1/Nc2ccccc2/C1=N\O | 4.4 µM | –
O=C1Nc2ccc(Br)cc2/C1=C1/Nc2ccc(Br)cc2/C1=N\O | 7 µM | –
O=C1Nc2cc(Br)ccc2/C1=C1/Nc2cc(Br)ccc2C1=O | > 100 µM | –
O=C1Nc2ccc(Br)cc2/C1=C1/Nc2ccc(Br)cc2/C1=N\OCC1CO1 (stereo unspecified) | 2.5 µM | –

SMILES | IC50 (HepG2 [1]) | further results
O=C1Nc2ccccc2/C1=C1/Nc2cc(Br)ccc2C1=O | > 100 µM | –
O=C1Nc2c(Br)cc(Br)cc2/C1=C1/Nc2ccccc2/C1=N\OCC1CO1 (stereo unspecified) | 8.8 µM | Activity (HepG2 [10]): inactive
O=C1Nc2cc(Br)ccc2/C1=C1/Nc2cc(Br)ccc2/C1=N\O | 16 µM | –
O=C1Nc2c(Br)cccc2/C1=C1/Nc2ccccc2/C1=N\OCC1CO1 (stereo unspecified) | 37 µM | Activity (HepG2 [10]): inactive
O=C1Nc2ccc(Br)cc2/C1=C1/Nc2cc(Br)ccc2/C1=N\O | > 100 µM | –
O=C1Nc2ccc(I)cc2/C1=C1/Nc2ccccc2C1=O | > 100 µM | –
O=C1Nc2cc(Br)ccc2/C1=C1/Nc2ccc(Br)cc2/C1=N\O | 3.7 µM | –
O=C1Nc2ccc(Br)cc2/C1=C1/Nc2ccccc2/C1=N\OCC(O)CO (stereo unspecified) | 9.8 µM | Activity [24]: Not Active; Retention_time (HepG2 [17]): 3.5 min; inhibition (Homo sapiens [25]): inactive
COc1ccc2c(c1)NC(=O)/C2=C1\Nc2ccccc2\C1=N/OCC1CO1 (stereo unspecified) | 61 µM | –
O=C1Nc2ccc(F)cc2/C1=C1/Nc2ccccc2/C1=N\OCC1CO1 (stereo unspecified) | 1.7 µM | –
COc1ccc2c(c1)/C(=C1/Nc3ccccc3/C1=N\OCC1CO1)C(=O)N2 (stereo unspecified) | 1.6 µM | –
O=C1Nc2c(Br)cccc2/C1=C1/Nc2cc(Br)ccc2/C1=N\O | 17 µM | –
O=C1Nc2ccc(Cl)cc2/C1=C1/Nc2ccccc2/C1=N\OCC1CO1 (stereo unspecified) | 1.3 µM | –
O=C1Nc2c(Br)cccc2/C1=C1/Nc2ccccc2/C1=N\O | 4.8 µM | –
COc1cccc2c1NC(=O)/C2=C1\Nc2ccccc2C1=O | > 100 µM | –
O=C1Nc2ccc(Br)cc2/C1=C1/Nc2cc(Br)ccc2C1=O | > 100 µM | –
O=C1Nc2ccc(Br)cc2/C1=C1/Nc2cc(Br)ccc2/C1=N\OCC1CO1 (stereo unspecified) | > 100 µM | –
O=C1Nc2ccccc2/C1=C1/Nc2cc(Br)ccc2/C1=N\OCC1CO1 (stereo unspecified) | 4.5 µM | –
O=C1Nc2cc(Br)ccc2/C1=C1/Nc2ccc(Br)cc2/C1=N\OCC1CO1 (stereo unspecified) | > 100 µM | –
O=C1Nc2ccc(Br)cc2/C1=C1/Nc2ccc(Br)cc2C1=O | > 100 µM | –
